Format in all cases: in vivo, Arabidopsis thaliana
The test system of experiment [1] is Ws/35S::HA-ABI5 transgenic lines. Put plainly: ABA inhibition of root growth, ABI5-overexpressing lines. The settings on record: 5-day old seedlings, 5 and 10 μM ABA for 5 days, n=15. How it is done: (§1) The following methods were used in obtaining the further results described below. WT Ws seedlings and transgenic Ws seedlings carrying 35S::HA -ABI5 (WT/35S::HA -ABI5, T3 generation) were germinated and grown for 5 days on MS medium without ABA. Seedlings were then transferred to plates containing 5 μM ABA, and subsequent root growth was scored after 5 days. Values were expressed as the average ±SD of 15 seedlings. For water loss measurement, young rosette leaves at the same developmental stage were excised from WT Ws, WT/35S::HA-ABI5 and abi1 plants and weighed at the different times indicated (n=3).
(§2) At 0.5 μM ABA, WT plants grew normally (FIG. 5A). Inhibition of root growth by ABA was unaffected in abi5-4 mutants but was exacerbated in ABI5-overexpressing lines (FIG. 5B). Five-day old seedlings grown in the absence of ABA were transferred to 0, 5 and 10 μM ABA plates for 5 days. The root length of ABA-treated seedlings was expressed as a percentage of non-treated controls (n=15).

For a further experiment, the system named is WT Ws seeds. Put plainly: Germination and early growth arrest of WT seeds on ABA plates. As to the method: (§3) Seeds of Arabidopsis thaliana, ecotype Wassilewskija, Columbia or Landsberg erecta were surface sterilized in 50% commercial bleach (Clorox) and 0.05% Tween 20 as described (Lopez-Molina and Chua, 2000) and then plated on Murashige and Skoog (MS) medium (Murashige and Skoog, 1962) containing 0.8% (w/v) Bacto-Agar (Difco Laboratories). Plates were routinely kept for 3 days in the dark at 4° C. to break dormancy (stratification) and transferred thereafter to a tissue culture room under constant white fluorescent light (27 μmol.m^−2.s^−1) at 22° C. Seeds of abi1, abi3-I and abi4 were obtained from the Nottingham Arabidopsis Stock Center (NASC). For ABA treatments, seedlings were transferred to plates supplemented with ABA (mixed isomers, Sigma A7393) which was dissolved in methanol. Control plates contained equal amounts of methanol.
Given the ABA-insensitivity of abi5-4 mutant and the timing of ABI5 induction upon ABA exposure, we studied the effect of ABA on growth during early development. […] Virtually all WT seeds were fully germinated on 5 μM ABA only 5 days post-stratification (FIG. 3C). Similar results were obtained with different Ws seed batches and for the ecotypes Landsberg and Columbia. At 10 μM ABA, complete germination was observed 8 days post-stratification (FIG. 3D). […] ABI5 levels remained constant as long as ABA was present. […] Upon ABA removal, all of the embryos started to green and resumed normal growth.

The subject of a further experiment is WT Ws plants. Put plainly: Survival after drought treatment on absorbing papers, WT Ws plants treated with ABA for 10 days. The following applies: +ABA 5 μM for 10 days, n = 30. As to the method:
as §3
(§4) To test this hypothesis, we broke embryo dormancy of WT and abi5-4 seeds in the absence of ABA for 24 hours. Seeds were then transferred for an additional 10 days to media with or without ABA. After 10 days, ABA-treated WT mature embryos had germinated but were arrested in growth as described above, whereas abi5-4 or non-treated WT Ws plants were green and continued to grow. Plants were then water-stressed for different time intervals on absorbent papers before being allowed to recover in normal medium. […] This is in sharp contrast with abi5-4 embryos, none of which survived. abi5-4 plants were able to survive better with than without ABA (Table 1), although not to the same extent as WT. […] Indeed, abi5-4 plants grow more slowly on 5 μM ABA than on medium lacking it, whereas the growth of WT plants is completely arrested. This developmental difference may be responsible for the higher resistance to water depletion of ABA-treated abi5-4 plants (Table 1).

The subject of experiment [2] is Ws/35S::HA-ABI5 transgenic plants. Put plainly: Germination and growth of ABI5 overexpressing transgenic seeds on ABA. How it is done: To determine whether the presence of ABI5 is sufficient to arrest growth in the absence of ABA, we expressed the ABI5 gene from a constitutive promoter. Transgenic Arabidopsis lines expressing ABI5 under the control of the cauliflower mosaic virus 35S promoter in WT Ws or abi5-4 backgrounds were generated and several independent lines expressing various levels of ABI5 were obtained. WT Ws and Ws/35S::HA-ABI5 transgenic plants were grown for 5 days with 0, 0.5 and 5 μM ABA. In the transgenic line shown in FIG. 5A, ABI5 levels in absence of ABA were at least five fold higher than that in WT plants grown in the presence of ABA. Transgenic seeds were arrested in development at 0.5 μM ABA and only started to germinate after 5 days (FIG. 5A). WT Ws seeds were insensitive to 0.5 μM ABA and were fully germinated in 5 μM ABA after 5 days (FIG. 5A). Despite the accumulation of ABI5, the lines germinated and developed normally in the absence of ABA.
We next investigated the effect of ABA in ABI5 overexpressing lines. Addition of 5 μM ABA severely delayed germination by at least 7 days and blocked mature embryo growth in several lines. To measure more precisely the ABA response, we plated WT/35S::HA-ABI5 transgenic seeds on growth media containing different ABA concentrations. Treatment of WT/35S::HA-ABI5 plants with 0.5 μM ABA was sufficient to phenocopy the response of WT plants exposed to 5 μM ABA (FIG. 5A).

For another experiment, the system named is ABI5. As to the kind of experiment: ABI5 protein accumulation in WT Ws seeds/seedlings by Western blot. The text has this:
RNA extraction and Northern blot hybridizations were done as described (Lopez-Molina and Chua, 2000). A DNA fragment encoding the ABI5 open reading frame was cloned into pET28a (Novagen) and the recombinant protein was induced and purified using a commercial kit according to the manufacturer's instructions (His trap, Amersham Pharmacia). Polyclonal anti-ABI5 antiserum was obtained from rabbits immunized with His-tagged ABI5. Standard methods using His-ABI5 coupled to a CNBr activated Sepharose 6-MB column (Amersham Pharmacia) were used to affinity purify specific ABI5 antibody from sera.
Plant protein extracts were resolved under reducing conditions using 10% SDS-polyacrylamide gels (Laemmli, 1970). […]
ABA concentrations (3-10 μM) that discriminate between abi5-4 mutants and WT under normal growth conditions were selected. […] Indeed, by immunoblot analysis, the ABI5 protein with a molecular mass of about 50 Kd was detected two days after stratification in the presence of ABA. […]
To determine whether the observed ABA-dependent accumulation of ABI5 levels was restricted to early development, we stratified WT seeds in the absence of ABA and then transferred the seedlings at different time intervals to a medium supplemented with 5 μM ABA (FIG. 3A). […] ABI5 levels were monitored by Western blot analysis. […] ABI5 levels were monitored by Western blot analyses as described for FIG. 1 (FIG. 3B).

The test system of a further experiment is abi5-4 mutants. As to the kind of experiment: ABA inhibition of root growth, abi5-4 mutants. As to the method: as §1, §2
The next experiment relates to abi5-4 plants. As to the kind of experiment: Survival after drought treatment on absorbing papers, abi5-4 plants treated with ABA for 10 days. The following applies: abi5, +ABA 5 μM for 10 days, n = 30. As to the method:
as §3, §4

The subject of another experiment is HA-ABI5. Put plainly: HA-ABI5 accumulation in WT/35S::HA-ABI5 transgenic lines by immunoblot. The following applies: WT/35S::HA-ABI5 lines, anti-HA immunoblot. As to the method:
Given the strong ABA-dependent ABI5 protein accumulation, we were interested to determine whether ABI5 protein stability is altered in the presence of ABA. For this purpose we generated WT/35S::HA-ABI5 transgenic lines constitutively expressing HA-ABI5 transcript. DNA manipulations were performed according to standard methods (Sambrook et al., 1989). 35S constructs were generated using a binary vector (Kost et al., 1998). Transgenic Arabidopsis lines (Ws ecotype) were generated using the Agrobacterium tumefaciens vacuum-infiltration method (Bechtold and Pelletier, 1998). Seeds (T1) from infiltrated plants were plated on MS medium containing 10 mg/L gluphosinate ammonium (Crescent Chemical) and 100 mg/L cefotaxime (Sigma).
In these lines, HA-ABI5 accumulation is 5-10 fold higher in the presence of ABA as shown by immunoblot analysis using anti-HA antibodies. 8-day old Ws/35S::HA-ABI5 seedlings (T3 generation) were transferred to MS medium with or without 50 μM ABA. Proteins were extracted at 0 hours, 10 minutes, 1 hour, 2 hours and 30 minutes, and 6 hours and ABI5 protein levels were monitored by Western blot analysis using antibodies to HA (FIG. 2A; each lane contains 5 μg protein). […] Equal amounts (5 μg) of protein were loaded on a 10% SDS-polyacrylamide (Novex) gel and analyzed by Western blots using rabbit antibody to HA (1:3,000; Santa Cruz).
(A western blot detects proteins with antibodies after separation by electrophoresis.)

As for `CC1=CC(=O)CC(C)(C)[C@@]1(O)/C=C/C(C)=C\C(=O)O` [ABA, Abscisic acid], in experiment [1], the “inhibition of root growth by ABA compared with WT Ws” value is reported as “exacerbated”. In addition, in the experiment with WT Ws seeds (0.5 μM ABA, 5 days), the “response of WT Ws seeds to ABA” value is listed as “insensitive”. Moreover, the “time after which all seeds fully germinate in the presence of ABA” value in the experiment with WT Ws seeds (ABA concentration range 3 to 10 μM) is 10 days. For the same compound, in the experiment on WT Ws seeds (WT germinated embryos kept on ABA for at least a month, n=200), the “embryos remaining white and quiescent, not growing” value was 95%±3. In addition, in the experiment with WT Ws seeds (WT seeds, 5 μM ABA), the “time at which virtually all seeds were fully germinated” value is recorded as 5 days post-stratification. Also, the “time at which complete germination was observed” value in the experiment on WT Ws seeds (WT seeds, 10 μM ABA) came out at 8 days post-stratification. Also, the “Percentage of survival after different period of drought treatment (hours)” value in the experiment on WT Ws plants (0 hours drought) worked out at 100%; with WT Ws plants (8 hours drought) it was 100%; in the experiment on WT Ws plants (12 hours drought), 98%; in the experiment with WT Ws plants (24 hours drought), 90%; with WT Ws plants (36 hours drought), 84%; in the experiment with abi5-4 plants (0 hours drought) it was 100%. For the same compound, the “Percentage of survival after different period of drought treatment (hours)” value in the experiment with abi5-4 plants (8 hours drought) is reported as 97%; in the experiment on abi5-4 plants (12 hours drought) it was 55%; in the experiment on abi5-4 plants (24 hours drought) it was 20%; in the experiment on abi5-4 plants (36 hours drought), 0%. In experiment [2] (ABI5 overexpressing lines, 5 μM ABA), the delay of germination result is “at least 7 days”. Also, in experiment [2] (WT/35S::HA-ABI5 plants), the “ABA concentration sufficient to phenocopy the response of WT plants exposed to 5 μM ABA” value was 0.5 µM. In addition, the “time after which arrested transgenic seeds started to germinate” value in experiment [2] (Ws/35S::HA-ABI5 seeds, 0.5 μM ABA) was determined as 5 days. Also, in the experiment on ABI5 (WT Ws transferred to 5 μM ABA plates), the “developmental window of efficient induction of ABI5 accumulation” value is recorded as 48-60 hours post-stratification. Moreover, in the experiment with ABI5 (WT Ws, 5 μM ABA, first two days post-stratification), the “increase of ABI5 protein level in the presence of ABA” value is given as “at least 10 fold”. For the same compound, the “inhibition of root growth by ABA” value in the experiment with abi5-4 mutants is “unaffected”. Besides, the “HA-ABI5 accumulation higher in the presence of ABA” value in the experiment on HA-ABI5 is on record as 5-10 fold.

Source of the values: US20020174454A1, “Overexpression of ABI5 in plants to prevent precocious seed germination and to confer resistance to drought and high salt” (priority 2001, published 2002).
